Assay results reported in publication PMC9502202, “Discovery of Novel Potential Aphid Repellents: Geranic Acid Esters Containing Substituted Aromatic Rings” (Molecules, 2022).

system: Acyrthosiphon pisum (A. pisum); experiment: Repellent activity test, glass two-way olfactometer; format: in vivo; settings: 0.25 h, wingless A. pisum, 2.5 µL of 2000 mg/L test solution in n-hexane on filter paper, 15 min, RP = (C − T)/(C + T) × 100%, mean ± standard deviation, read-out: RP (%) repellency proportion
Description: The behavioral response of A. pisum to 5a-5x was investigated with a glass two-way olfactometer, and the aphid-repellent activity was carried out according to our previously published method. The aphids were reared in a growth chamber (at 23 ± 1 °C, with a […]:8D photoperiod and 70% relative humidity) at China Agricultural University. The compounds were weighed, dissolved in n-hexane, and prepared into a test solution with a concentration of 2000 mg/L using n-hexane as a blank control. About 20 wingless A. pisum were placed through the release port and each arm was pumped with 0.2 L/min of activated carbon and distilled water. One arm was chosen as the “treatment” (T) arm and another was the “control” (C) arm. For the “T” arm, 2.5 μL of test solutions were applied to filter paper strips (1 cm^2 diameter), and 2.5 μL of n-hexane was applied for the “C” arm. The number of aphids in each direction was recorded for 15 min at 2 cm from the center of the horizontal arm. The olfactometer was washed with ethanol, the filter paper was replaced, and the two arms were switched and the experiment was repeated four times for each treatment. The repellent activity was evaluated using RP as the formula RP = (C - T)/(C+T) × 100%, where T and C mean the number of aphids in the treatment and control arm, respectively. The RP values of the derivatives were statistically analyzed with SPSS 24.0 (SPSS Inc., Chicago, IL, USA) using a one-way analysis of variance (ANOVA), followed by a Duncan's test with a significance set at p < 0.05.

SMILES | pest or weed control at 2000 µg/mL [%]
CC(C)=CCC/C(C)=C/C(=O)Oc1ccccc1 [5a] | 38.1 ± 2.38
CC(C)=CCC/C(C)=C/C(=O)Oc1ccccc1C [5b, 2-tolyl (E)-3,7-dimethylocta-2,6-dienoate] | 35.2 ± 2.65
CC(C)=CCC/C(C)=C/C(=O)Oc1cccc(C)c1 [5c, 3-tolyl (E)-3,7-dimethylocta-2,6-dienoate] | 39.8 ± 1.95
CC(C)=CCC/C(C)=C/C(=O)Oc1ccc(C)cc1 [5d, 4-tolyl (E)-3,7-dimethylocta-2,6-dienoate] | 38.7 ± 2.75
COc1ccccc1OC(=O)/C=C(\C)CCC=C(C)C [5e, 2-methoxyphenyl (E)-3,7-dimethylocta-2,6-dienoate] | 37.4 ± 2.08
COc1cccc(OC(=O)/C=C(\C)CCC=C(C)C)c1 [5f, 3-methoxyphenyl (E)-3,7-dimethylocta-2,6-dienoate] | 55.6
COc1ccc(OC(=O)/C=C(\C)CCC=C(C)C)cc1 [5g, 4-methoxyphenyl (E)-3,7-dimethylocta-2,6-dienoate] | 43.6 ± 3.09
CC(C)=CCC/C(C)=C/C(=O)Oc1ccccc1Cl [5h, 2-chlorophenyl (E)-3,7-dimethylocta-2,6-dienoate] | 31.8 ± 1.31
CC(C)=CCC/C(C)=C/C(=O)Oc1cccc(Cl)c1 [5i, 3-chlorophenyl (E)-3,7-dimethylocta-2,6-dienoate] | 51.4 ± 1.2
CC(C)=CCC/C(C)=C/C(=O)Oc1ccc(Cl)cc1 [5j, 4-chlorophenyl (E)-3,7-dimethylocta-2,6-dienoate] | 38.7 ± 2.75
CC(C)=CCC/C(C)=C/C(=O)Oc1ccccc1F [5k, 2-fluorophenyl (E)-3,7-dimethylocta-2,6-dienoate] | 28.8 ± 1.31
CC(C)=CCC/C(C)=C/C(=O)Oc1cccc(F)c1 [5l, 3-fluorophenyl (E)-3,7-dimethylocta-2,6-dienoate] | 34.9 ± 3.3
CC(C)=CCC/C(C)=C/C(=O)Oc1ccc(F)cc1 [5m, 4-fluorophenyl (E)-3,7-dimethylocta-2,6-dienoate] | 27.9 ± 2.85
CC(C)=CCC/C(C)=C/C(=O)Oc1ccccc1[N+](=O)[O-] [5n, 2-nitrophenyl (E)-3,7-dimethylocta-2,6-dienoate] | 23.4 ± 2.35
CC(C)=CCC/C(C)=C/C(=O)Oc1cccc([N+](=O)[O-])c1 [5o, 3-nitrophenyl (E)-3,7-dimethylocta-2,6-dienoate] | 41.5 ± 1.49
CC(C)=CCC/C(C)=C/C(=O)Oc1ccc([N+](=O)[O-])cc1 [5p, 4-nitrophenyl (E)-3,7-dimethylocta-2,6-dienoate] | 39.8 ± 1.95
CC(C)=CCC/C(C)=C/C(=O)Oc1ccccc1Br [5q, 2-bromophenyl (E)-3,7-dimethylocta-2,6-dienoate] | 42.7 ± 1.36
CC(C)=CCC/C(C)=C/C(=O)Oc1cccc(Br)c1 [5r, 3-bromophenyl (E)-3,7-dimethylocta-2,6-dienoate] | 51.2 ± 1.94
CC(C)=CCC/C(C)=C/C(=O)Oc1ccc(Br)cc1 [5s, 4-bromophenyl (E)-3,7-dimethylocta-2,6-dienoate] | 43.4
CC(C)=CCC/C(C)=C/C(=O)Oc1ccccc1OC(F)(F)F [5t, 2-(trifluoromethoxy)phenyl (E)-3,7-dimethylocta-2,6-dienoate] | 28.2 ± 1.55
CC(C)=CCC/C(C)=C/C(=O)Oc1cccc(OC(F)(F)F)c1 [5u, 3-(trifluoromethoxy)phenyl (E)-3,7-dimethylocta-2,6-dienoate] | 38 ± 2.54
CC(C)=CCC/C(C)=C/C(=O)Oc1ccc(OC(F)(F)F)cc1 [5v, 4-(trifluoromethoxy)phenyl (E)-3,7-dimethylocta-2,6-dienoate] | 24.9 ± 2.52
CC(C)=CCC/C(C)=C/C(=O)Oc1c(F)cccc1F [5w, 2,6-difluorophenyl (E)-3,7-dimethylocta-2,6-dienoate] | 36.7
CC(C)=CCC/C(C)=C/C(=O)Oc1c(Br)cccc1Br [5x, 2,6-dibromophenyl (E)-3,7-dimethylocta-2,6-dienoate] | 43.9 ± 2.09
CC(C)=CCC/C(C)=C/COC(=O)c1ccc(Br)cc1 [CAU14, reference compound] | 33.5
CC(C)=CCC/C(C)=C/COC(=O)c1c(F)cccc1F [CAU15, reference compound] | 18.3
